Assays:
Hepatotoxicity [1] = assay: Literature-mined compound from Fourches et al multi-species drug-induced liver injury (DILI) dataset, effect in rodents; details: rodentia
Hepatotoxicity [2] = assay: Literature-mined compound from Fourches et al multi-species drug-induced liver injury (DILI) dataset, effect in non-rodents
Hepatotoxicity [3] = assay: Literature-mined compound from Fourches et al multi-species drug-induced liver injury (DILI) dataset, effect in humans; details: human

| SMILES | Hepatotoxicity (Hepatotoxicity [1]) | Hepatotoxicity (Hepatotoxicity [2]) | Hepatotoxicity (Hepatotoxicity [3]) | Hepatotoxicity (Hepatotoxicity [1]; Liver) | Hepatotoxicity (Hepatotoxicity [2]; Liver) | Hepatotoxicity (Hepatotoxicity [3]; Liver) |
| --- | --- | --- | --- | --- | --- | --- |
| C[C@H](N[C@@H](CCc1ccccc1)C(=O)O)C(=O)N1CCC[C@H]1C(=O)O [ENALAPRILAT ANHYDROUS] | no drug-induced liver injury reported | no drug-induced liver injury reported | drug-induced liver injury reported |  |  |  |
| COc1ccc(C(=O)Nc2ccccc2CCC2CCCCN2C)cc1 (centres undefined) [ENCAINIDE] | no drug-induced liver injury reported | no drug-induced liver injury reported | drug-induced liver injury reported |  |  |  |
| CCn1cc(C(=O)O)c(=O)c2cc(F)c(N3CCNCC3)nc21 [ENOXACIN] | drug-induced liver injury reported | no drug-induced liver injury reported | drug-induced liver injury reported |  |  |  |
| CSc1ccc(C(=O)c2[nH]c(=O)[nH]c2C)cc1 [ENOXIMONE] | drug-induced liver injury reported | no drug-induced liver injury reported | no drug-induced liver injury reported |  |  |  |
| CC1(C)[C@@H](O)CC[C@]2(C)[C@H]3C(=O)C=C4[C@@H]5C[C@@](C)(C(=O)O)CC[C@]5(C)CC[C@@]4(C)[C@]3(C)CC[C@@H]12 [ENOXOLONE] | drug-induced liver injury reported | no drug-induced liver injury reported | drug-induced liver injury reported |  |  |  |
| CCN(CC)C(=O)/C(C#N)=C/c1cc(O)c(O)c([N+](=O)[O-])c1 [ENTACAPONE] | drug-induced liver injury reported | no drug-induced liver injury reported | drug-induced liver injury reported |  |  |  |
| CN[C@@H](C)[C@H](O)c1ccccc1 [EPHEDRINE] | no drug-induced liver injury reported | no drug-induced liver injury reported | drug-induced liver injury reported |  |  |  |
| CNC[C@H](O)c1ccc(O)c(O)c1 [EPINEPHRINE] |  |  |  | drug-induced liver injury reported | drug-induced liver injury reported | drug-induced liver injury reported |
| COc1cccc2c1C(=O)c1c(O)c3c(c(O)c1C2=O)C[C@@](O)(C(=O)CO)C[C@@H]3O[C@H]1C[C@H](N)[C@@H](O)[C@H](C)O1 [EPIRUBICIN] | drug-induced liver injury reported | no drug-induced liver injury reported | no drug-induced liver injury reported |  |  |  |
| CCCCC[C@H](O)/C=C/[C@@H]1[C@H]2C/C(=C/CCCC(=O)[O-])O[C@H]2C[C@H]1O.[Na+] [EPOPROSTENOL SODIUM] | drug-induced liver injury reported | no drug-induced liver injury reported | no drug-induced liver injury reported |  |  |  |
| O=C(O)CSCC(=O)NC1CCSC1=O (centres undefined) [ERDOSTEINE] | drug-induced liver injury reported | no drug-induced liver injury reported | no drug-induced liver injury reported |  |  |  |
| CN1C[C@H](C(=O)N[C@]2(C)O[C@@]3(O)[C@@H]4CCCN4C(=O)[C@H](Cc4ccccc4)N3C2=O)C=C2c3cccc4[nH]cc(c34)C[C@H]21 [ERGOTAMINE] | no drug-induced liver injury reported | drug-induced liver injury reported | drug-induced liver injury reported |  |  |  |
| CCC(=O)O[C@H]1[C@H](O[C@@H]2[C@@H](C)[C@H](O[C@H]3C[C@@](C)(OC)[C@@H](O)[C@H](C)O3)[C@@H](C)C(=O)O[C@H](CC)[C@@](C)(O)[C@H](O)[C@@H](C)C(=O)[C@H](C)C[C@@]2(C)O)O[C@H](C)C[C@@H]1N(C)C.CCCCCCCCCCCCOS(=O)(=O)O [ERYTHROMYCIN ESTOLATE] | drug-induced liver injury reported | no drug-induced liver injury reported | drug-induced liver injury reported |  |  |  |

— ChEMBL document CHEMBL1697731, “Cheminformatics analysis of assertions mined from literature that describe drug-induced liver injury in different species” (Chem Res Toxicol, 2010)
